Laboratory results reported in the NIST ThermoML archive (doi:10.1016/j.jct.2013.08.034).
Numbers after ± are expanded uncertainties.

Assay: xn = mol fraction of the nth substance listed
Conditions: 101 kPa, Liquid; for mass density: Vibrating tube method; for electrical conductivity: Conductivity Meter Jenco 3107; for viscosity: Cone and plate viscometry

CC1COC(=O)O1 (centres undefined) [4-methyl-1,3-dioxolan-2-one] + CCCC[n+]1ccn(C)c1.O=S(=O)([N-]S(=O)(=O)C(F)(F)F)C(F)(F)F
Conditions | electrical conductivity [S/m] | mass density [kg/m3] | viscosity [mPa·s]
308.15 K, x2 = 0.7989 | – | 1410.26 ± 0.59 | –
308.15 K, x2 = 0.898 | – | 1418.04 ± 0.59 | –
313.15 K, x2 = 0 | – | – | 2.05 ± 0.21
313.15 K, x2 = 0.0146 | – | 1194.33 ± 0.42 | –
313.15 K, x2 = 0.0296 | – | 1205.22 ± 0.43 | –
313.15 K, x2 = 0.0453 | – | 1215.97 ± 0.43 | –
313.15 K, x2 = 0.0502 | 1.14 ± 0.034 | – | –
313.15 K, x2 = 0.0616 | – | 1226.46 ± 0.44 | –
313.15 K, x2 = 0.0732 | – | 1233.52 ± 0.44 | –
313.15 K, x2 = 0.0997 | – | 1248.42 ± 0.45 | –
313.15 K, x2 = 0.1 | – | – | 3.21 ± 0.32
313.15 K, x2 = 0.1004 | 1.44 ± 0.043 | – | –
313.15 K, x2 = 0.2001 | 1.66 ± 0.05 | – | –
313.15 K, x2 = 0.2002 | – | – | 4.59 ± 0.46
313.15 K, x2 = 0.2004 | – | 1293.64 ± 0.49 | –
313.15 K, x2 = 0.3002 | 1.52 ± 0.046 | – | –
313.15 K, x2 = 0.3007 | – | – | 6.34 ± 0.64
313.15 K, x2 = 0.3081 | – | 1328.25 ± 0.51 | –
313.15 K, x2 = 0.3998 | – | – | 8.29 ± 0.83
313.15 K, x2 = 0.4004 | – | 1350.46 ± 0.53 | –
313.15 K, x2 = 0.4005 | 1.4 ± 0.042 | – | –
313.15 K, x2 = 0.5004 | – | – | 10.77 ± 1.1
313.15 K, x2 = 0.5007 | 1.25 ± 0.038 | – | –
313.15 K, x2 = 0.5021 | – | 1369.47 ± 0.55 | –
313.15 K, x2 = 0.5839 | – | 1381.78 ± 0.56 | –
313.15 K, x2 = 0.6002 | – | – | 13.57 ± 1.4
313.15 K, x2 = 0.6003 | 1.11 ± 0.033 | – | –
313.15 K, x2 = 0.6902 | – | 1394.71 ± 0.57 | –
313.15 K, x2 = 0.6979 | – | – | 16.55 ± 1.7
313.15 K, x2 = 0.6989 | 0.971 ± 0.029 | – | –
313.15 K, x2 = 0.7989 | – | 1405.28 ± 0.58 | –
313.15 K, x2 = 0.8001 | 0.85 ± 0.026 | – | –
313.15 K, x2 = 0.8015 | – | – | 20.47 ± 2.1
313.15 K, x2 = 0.8959 | 0.73 ± 0.022 | – | 23.63 ± 2.4
313.15 K, x2 = 0.898 | – | 1413.08 ± 0.59 | –
318.15 K, x2 = 0 | – | – | 1.9 ± 0.19
318.15 K, x2 = 0.0146 | – | 1188.81 ± 0.42 | –
318.15 K, x2 = 0.0296 | – | 1199.72 ± 0.42 | –
318.15 K, x2 = 0.0453 | – | 1210.48 ± 0.43 | –
318.15 K, x2 = 0.0502 | 1.23 ± 0.037 | – | –
318.15 K, x2 = 0.0616 | – | 1220.94 ± 0.44 | –
318.15 K, x2 = 0.0732 | – | 1228.04 ± 0.44 | –
318.15 K, x2 = 0.0997 | – | 1243.05 ± 0.45 | –
318.15 K, x2 = 0.1 | – | – | 2.89 ± 0.29
318.15 K, x2 = 0.1004 | 1.59 ± 0.048 | – | –
318.15 K, x2 = 0.2001 | 1.81 ± 0.054 | – | –
318.15 K, x2 = 0.2002 | – | – | 4.17 ± 0.42
318.15 K, x2 = 0.2004 | – | 1288.34 ± 0.48 | –
318.15 K, x2 = 0.3002 | 1.68 ± 0.05 | – | –
318.15 K, x2 = 0.3007 | – | – | 5.68 ± 0.57
318.15 K, x2 = 0.3081 | – | 1323.02 ± 0.51 | –
318.15 K, x2 = 0.3998 | – | – | 7.31 ± 0.73
318.15 K, x2 = 0.4004 | – | 1345.37 ± 0.53 | –
318.15 K, x2 = 0.4005 | 1.57 ± 0.047 | – | –
318.15 K, x2 = 0.5004 | – | – | 9.37 ± 0.94
318.15 K, x2 = 0.5007 | 1.41 ± 0.042 | – | –
318.15 K, x2 = 0.5021 | – | 1364.43 ± 0.55 | –
318.15 K, x2 = 0.5839 | – | 1376.72 ± 0.56 | –
318.15 K, x2 = 0.6002 | – | – | 11.75 ± 1.2
318.15 K, x2 = 0.6003 | 1.26 ± 0.038 | – | –
318.15 K, x2 = 0.6902 | – | 1389.72 ± 0.57 | –
318.15 K, x2 = 0.6979 | – | – | 14.29 ± 1.4
318.15 K, x2 = 0.6989 | 1.11 ± 0.033 | – | –
318.15 K, x2 = 0.7989 | – | 1400.29 ± 0.58 | –
318.15 K, x2 = 0.8001 | 0.961 ± 0.029 | – | –
318.15 K, x2 = 0.8015 | – | – | 17.5 ± 1.8
318.15 K, x2 = 0.8959 | 0.828 ± 0.025 | – | 20.04 ± 2
318.15 K, x2 = 0.898 | – | 1408.1 ± 0.59 | –
323.15 K, x2 = 0 | – | – | 1.78 ± 0.18
323.15 K, x2 = 0.0146 | – | 1183.28 ± 0.41 | –
323.15 K, x2 = 0.0296 | – | 1194.23 ± 0.42 | –
323.15 K, x2 = 0.0453 | – | 1204.99 ± 0.43 | –
323.15 K, x2 = 0.0502 | 1.32 ± 0.04 | – | –
323.15 K, x2 = 0.0616 | – | 1215.52 ± 0.43 | –
323.15 K, x2 = 0.0732 | – | 1222.56 ± 0.43 | –
323.15 K, x2 = 0.0997 | – | 1237.51 ± 0.44 | –
323.15 K, x2 = 0.1 | – | – | 2.68 ± 0.27
323.15 K, x2 = 0.1004 | 1.74 ± 0.052 | – | –
323.15 K, x2 = 0.2001 | 1.97 ± 0.059 | – | –
323.15 K, x2 = 0.2002 | – | – | 3.81 ± 0.38
323.15 K, x2 = 0.2004 | – | 1283 ± 0.49 | –
323.15 K, x2 = 0.3002 | 1.85 ± 0.056 | – | –
323.15 K, x2 = 0.3007 | – | – | 5.14 ± 0.52
323.15 K, x2 = 0.3081 | – | 1317.8 ± 0.51 | –
323.15 K, x2 = 0.3998 | – | – | 6.58 ± 0.66
323.15 K, x2 = 0.4004 | – | 1340.2 ± 0.53 | –
323.15 K, x2 = 0.4005 | 1.74 ± 0.052 | – | –
323.15 K, x2 = 0.5004 | – | – | 8.34 ± 0.84
323.15 K, x2 = 0.5007 | 1.57 ± 0.047 | – | –
323.15 K, x2 = 0.5021 | – | 1359.32 ± 0.54 | –
323.15 K, x2 = 0.5839 | – | 1371.65 ± 0.55 | –
323.15 K, x2 = 0.6002 | – | – | 10.31 ± 1
323.15 K, x2 = 0.6003 | 1.41 ± 0.042 | – | –
323.15 K, x2 = 0.6902 | – | 1384.62 ± 0.57 | –
323.15 K, x2 = 0.6979 | – | – | 12.41 ± 1.2
323.15 K, x2 = 0.6989 | 1.25 ± 0.038 | – | –
323.15 K, x2 = 0.7989 | – | 1395.23 ± 0.57 | –
323.15 K, x2 = 0.8001 | 1.1 ± 0.033 | – | –
323.15 K, x2 = 0.8015 | – | – | 15.15 ± 1.5
323.15 K, x2 = 0.8959 | 0.93 ± 0.028 | – | 17.34 ± 1.7
323.15 K, x2 = 0.898 | – | 1403.08 ± 0.58 | –
328.15 K, x2 = 0 | – | – | 1.63 ± 0.16
328.15 K, x2 = 0.0502 | 1.41 ± 0.042 | – | –
328.15 K, x2 = 0.1 | – | – | 2.47 ± 0.25
328.15 K, x2 = 0.1004 | 1.89 ± 0.057 | – | –
328.15 K, x2 = 0.2001 | 2.12 ± 0.064 | – | –
328.15 K, x2 = 0.2002 | – | – | 3.45 ± 0.35
328.15 K, x2 = 0.3002 | 2.06 ± 0.062 | – | –
328.15 K, x2 = 0.3007 | – | – | 4.68 ± 0.47
328.15 K, x2 = 0.3998 | – | – | 5.94 ± 0.6
328.15 K, x2 = 0.4005 | 1.92 ± 0.057 | – | –
328.15 K, x2 = 0.5004 | – | – | 7.41 ± 0.74
328.15 K, x2 = 0.5007 | 1.74 ± 0.052 | – | –
328.15 K, x2 = 0.6002 | – | – | 9.19 ± 0.92
328.15 K, x2 = 0.6003 | 1.57 ± 0.047 | – | –
328.15 K, x2 = 0.6979 | – | – | 11 ± 1.1
328.15 K, x2 = 0.6989 | 1.4 ± 0.042 | – | –
328.15 K, x2 = 0.8001 | 1.25 ± 0.037 | – | –
328.15 K, x2 = 0.8015 | – | – | 13.3 ± 1.3
328.15 K, x2 = 0.8959 | 1.07 ± 0.032 | – | 15.12 ± 1.5
333.15 K, x2 = 0 | – | – | 1.54 ± 0.15
333.15 K, x2 = 0.1 | – | – | 2.31 ± 0.23
333.15 K, x2 = 0.2002 | – | – | 3.22 ± 0.32
333.15 K, x2 = 0.3007 | – | – | 4.26 ± 0.43
333.15 K, x2 = 0.3998 | – | – | 5.37 ± 0.54
333.15 K, x2 = 0.5004 | – | – | 6.66 ± 0.67
333.15 K, x2 = 0.6002 | – | – | 8.17 ± 0.82
333.15 K, x2 = 0.6979 | – | – | 9.7 ± 0.97
333.15 K, x2 = 0.8015 | – | – | 11.7 ± 1.2
333.15 K, x2 = 0.8959 | – | – | 13.26 ± 1.3
